According to patent publication US20260335388A1, “COMBINATION THERAPIES WITH ONCOLYTIC ADENOVIRUS AND TOPOISOMERASE I INHIBITORS OR PRODRUGS THEREOF” (priority 2022, published 2026):
Like-named read-outs stand apart in the source and are kept apart here.

What was measured:
[1] = tested on: HSJD-RBT-7 retinoblastoma cells; assay: cells; type: cell-based; conditions: Homo sapiens
E1a = assay: Immunoblot of E1a / E2F-1 in VCN-01-infected Y79 cells with further chemotherapeutics; type: cell-based
Experimental: 2 million Y79 retinoblastoma cells were infected with 50 MOIs of VCN-01. […] Etoposide is topoisomerase 2 inhibitor.
(§1) In all experiments, 6-well culture plates containing 2×10^6 cells were used. […] The experiments were controlled by adding culture medium instead of the second treatment. […] The analyses were expanded to other chemotherapeutic agents including hydroxyurea ([…]), etoposide (2 μM), irinotecan (10 μM) or SN-38 (1 μM).
(§2) Near-infrared labeled secondary antibodies (Odyssey CLx, LI-COR Inc. Bad Homburg, Germany) were used for detection.

HSJD-RBT-7 tumors = type: in vivo, mouse; conditions: systemic drug after intratumoral VCN-01 3×10E^9 vp/tumor; 5 days (FIG. 3)
[2] = tested on: HSJD-ES-033 Ewing sarcoma; assay: Antitumor activity in Ewing sarcoma PDX HSJD-ES-033; type: in vivo, mouse; conditions: single treatment (FIG. 24E,G)
Experimental: Patient-derived xenograft (PDX) of Ewing sarcoma (pediatric solid tumor) were implanted subcutaneously into athymic nude mice. Tumor model was HSJD-ES-033. Upon engraftment (tumor volumes ranging 100-500 mm^3), combination treatment in which topotecan was administered systemically (intraperitoneal) at a concentration of 0.6 mg/kg/day, on Days 1, 2, 3, 4 and 5, and a single dose of 3×10^9 vp/tumor VCN-01 was administered intratumorally on Day 1, was compared to either of the treatments alone.
Antitumor activity in extracranial pediatric solid tumors. 5-10 mm^3 fresh fragments of Ewing sarcoma or neuroblastoma PDX were implanted in both flanks of mice. Upon s.c. engraftment (tumor volume 150-200 mm^3), mice received topotecan (0.6 mg/kg, i.p., days 1-5), VCN-01 (3×10^9 vp in 20 µL vehicle, intratumoral, day 1), or the combination. In two additional groups, an alternative topoisomerase 1 inhibitor, irinotecan (10 mg/kg, i.p., on days 1-5) we used in place of topotecan. Upon completion of treatments, tumor volumes were followed until endpoint (1500 mm^3), or until day 80.

[3] = tested on: E1A, E1B, E2F-1, p53 and cPARP; assay: Expression of viral genes and proteins by treatment sequence, Y79 cells; type: cell-based
Experimental: The expression of viral genes E1A and E1B was studied in 6-well culture plates containing 2×10^6 retinoblastoma cells. […] The experiments were controlled by adding culture medium instead of topotecan. […] Real time quantitative polymerase chain reactions (RT-qPCR) were carried out to analyze gene expression using SYBR technology (Thermo Fisher Scientific).
as §1, §2

RBT-7 xenografts = assay: Ocular survival, RBT-7 intraocular xenografts; type: in vivo, mouse; conditions: control 35 days; combination P<0.0001 (FIG. 20C)
Experimental: Antitumor activity in retinoblastoma. For orthotopic intraocular engraftments 2×10^5 retinoblastoma cells were inoculated per eye, in 2 μL matrigel (Pascual-Pasto et al., 2016). To obtain s.c. xenografts 10^6 cells were injected in 25 μl matrigel. For ocular tumors, treatments were started at day 8 after inoculation (when tumors were appreciable by fundus examination). For s.c. tumors, treatments were started when volumes achieved 100-300 mm^3 (day 1). After treatments, the survivors were followed up until endpoint and the median survival of each group was calculated, as described previously (Mandigo et al., 2022; Rodríguez-García et al., 2015).
In a second experiment, the sequence of administration of one injection of VCN-01 and one 5-day cycle of topotecan was addressed. Mice with intraocular tumors (Y79 or RBT-7) received either topotecan 0.6 mg/kg, i.p. on days 8-12, one intravitreal injection of VCN-01 (3×10^8 vp) on day 8, or the combination of topotecan and VCN-01. Y79-bearing mice also received a switched treatment sequence, with VCN-01 on day 12, after the last dose of topotecan.

[4] = tested on: s.c. retinoblastomas (Y79 and RBT-7); assay: VCN-01 genomes in s.c. xenografts (Y79 and RBT-7); type: in vivo, mouse
Experimental: To quantify genome copies of VCN-01 in cell cultures or mouse tissues, total DNA was extracted and real time quantitative polymerase chain reactions (RT-qPCR) was performed as described (Cascallo et al., “Systemic toxicity-efficacy profile of ICOVIR-5, a potent and selective oncolytic adenovirus based on the pRB pathway,” Mol Ther 2007; 15(9):1607-15).
Intratumoral infection of VCN-01. S.c. tumors were established in athymic nude mice. Upon xenograft engraftment, mice received one intratumoral injection of VCN-01, alone or combined with one cycle of topotecan, […], or hydroxyurea. At 5 and 15 days after VCN-01 inoculation, genome copies of VCN-01 were quantified in the tumors and immunostained for E1A and E2F-1.
To establish s.c. tumors, 10^6 retinoblastoma cells suspended in 25 µL matrigel (Corning, Glendale, AZ, USA) were injected in athymic nude mice. Upon xenograft engraftment (tumor volumes ranging 100-200 mm^3), treatments were started. Mice received VCN-01 (3×10^9 vp in 20 µL vehicle, single intratumoral injection at day 1), alone or combined with one cycle of topotecan (0.6 mg/kg, intraperitoneal -i.p.-, daily at days 1-5), […] (40 mg/kg, i.p, one single dose at day 1), or hydroxyurea (200 mg/kg, i.p., daily at days 1-5). […] In tumor homogenates, genome copies of VCN-01 were quantified. […]

[5] = topotecan pretreatment before VCN-01 (FIG. 13E)

CC[C@@]1(O)C(=O)OCc2c1cc1n(c2=O)Cc2cc3c(CN(C)C)c(O)ccc3nc2-1 [Topotecan, topotecan]
IC50 ([1]; read-out: IC50, Topotecan single agent): 0.0151 µM | IC50 ([1]; read-out: IC50, Topotecan with VCN-01 (10 MOI)): 0.118 µM | expression of VCN-01 proteins (E1a) (E1a; VCN-01 50 MOI, drug added at 24 h, lysis at 48 h (FIG. 7)): similarly to topotecan | expression of E2F-1 and E1A (E1a; Y79 cells pre-exposed to VCN-01 (FIG. 13H)): increased the expression of E2F-1 and E1A similarly to topotecan | VCN-01 genome content in tumors (HSJD-RBT-7 tumors): increases VCN-01 genome content | response of xenograft to single treatment [2]: highly resistant | E1A expression, VCN-01 first ([3]; topotecan addition after the virus (FIG. 13E,F)): up to two orders of magnitude | E1B expression, VCN-01 first ([3]; topotecan addition after the virus (FIG. 13G)): up to two orders of magnitude | E2F-1 level, topotecan first [3, 5]: accumulation of E2F-1 | p53 and cPARP expression, topotecan first [3, 5]: increased expression of proapoptotic proteins p53 and cPARP | E1A expression (protein and gene), topotecan first ([3]; topotecan pretreatment before VCN-01 (FIG. 13E,F)): low expression of E1A (protein and gene) | median survival (RBT-7 xenografts): 39 days | counts of viral genomes, 5 days ([4]; 5 days after intratumoral VCN-01 (FIG. 18G)): higher counts of viral genomes | counts of viral genomes, 15 days ([4]; 15 days after intratumoral VCN-01 (FIG. 19B)): Different counts of viral genomes were not observed
